The target of one experiment is p38α/PRAK (Homo sapiens, UniProt Q16539). Put plainly: p38α/PRAK cascade assay (IMAP, Hsp27 peptide phosphorylation). The experiment is classed as biochemical. The following applies: Hsp27 peptide 1 μM, MgATP 10 μM, 120 minutes, read-out: p38/PRAK IC50. The procedure: (§1) P38 inhibitory potency and P38/MK2 substrate selectivity: The novel, MK2 substrate-selective inhibitory mechanism of compounds is evaluated in enzyme assays that compare inhibitor potency in blocking p38/MK2 versus p38/PRAK induced phosphorylation of an HSP-27 derived peptide substrate. The ability of compounds to inhibit activated phospho-p38α is evaluated using a p38α/MK2 and a p38α/PRAK cascade assay format. The kinase activity of p38α is determined by its ability to phosphorylate and activate GST-MK2 or GST-PRAK. The kinase activity of activated MK2 and PRAK is followed by measuring the phosphorylation of a fluorescently-labeled, peptide substrate based on the sequence of Hsp27 (FITC-KKKALSRQLSVAA). The phosphorylation of the Hsp27 peptide is quantified using IMAP assay technology (Molecular Devices) and the Analyst HT plate reader (LJL Biosystems). Kinase reactions are carried out in a 384-well plate (Corning 3575) in 20 mM HEPES pH 7.5, 10 mM MgCl2, 0.0005% Tween-20, 0.01% BSA, 1 mM DTT, and 2% DMSO. The inhibitor concentration varies between 0.5-30,000 nM, while the Hsp27 peptide substrate and MgATP are held constant at 1 μM and 10 μM, respectively. Activated p38α is added to a final concentration of 20 pM for reactions with 1 nM nonphosphorylated 1 nM GST-MK2. For the p38α/PRAK cascade, unactivated GST-PRAK is held constant at 10 nM while p38α is added to a final concentration of […]. Kinase reactions are incubated at room temperature and quenched after 120 minutes by the addition of 1× Progressive Binding Buffer A containing 1×IMAP beads (IMAP FP Progressive Screening Express Kit, Molecular Devices Catalog Number R8127). Inhibitor potency is calculated by fitting dose-response data to the 4-parameter logistical IC50 equation. The substrate selectivity is calculated as a ratio of p38α/PRAK:p38α/MK2 IC50 values. A substrate selective inhibitor will have a p38α/PRAK:p38α/MK2 IC50 ratio of >2 while a classical p38 inhibitor will have a ratio of between 0.5-2. […] By way of example, the enhanced therapeutic benefit could be associated with a reduction in inhibition of p38 mediated anti-inflammatory functions, such as IL-10 production and TAB1 phosphorylation. An increased safety profile is expected based, for example, on a reduced inhibition of p38 substrates, such as PPARg and CDC25 phosphatase and PLA2 involved in gluconeogenesis and cell cycle regulation, respectively.

In a further experiment the test system is TNFα. As to the kind of experiment: LPS stimulated TNFα production in human PBMCs (ELISA). In kind it is cell-based. The following applies: PBMC, LPS 0.1 μg/ml, 18-24 hours, read-out: PBMC Cell, TNFα IC50. How it is done: Evaluation of the potency and efficacy of p38 inhibitors to block cytokine production is carried out using the human U937 cell line and purified human PBMCs (peripheral blood mononuclear cells). The U937 human pre-monocytic cell line is obtained from the American Type Culture Collection (Rockville, Md.). These cells are differentiated to a monocytic/macrophage phenotype as described by Burnette (Burnette et al., (2009). SD0006: a potent, selective and orally available inhibitor of p38 kinase, Pharmacology 84(1):42-60). Differentiated U937 cells are seeded into 96-well tissue culture plates (200,000 cells/well) in complete media. After 24 hours, the cells are pretreated for 60 minutes in the presence or absence of compound and then stimulated with LPS (lipopolysaccharide) (0.1 μg/mL) for 4 hours. Culture media are then collected for determination of TNFα or IL-6 levels by ELISA. Human PBMCs are isolated from leukopacks as described by Burnette (Burnette et al., (2009), op. cit.). The cells are seeded into 96-well tissue culture plates (200,000 cells/well) in complete media. After a one hour recovery period at 37° C., 5% CO2, the cells are pretreated for 60 minutes in the presence or absence of compound and then stimulated with LPS (0.1 μg/ml) for 18-24 hours. Culture media are then collected for determination of TNFα and IL1β by ELISA. Cytokine concentrations are extrapolated from recombinant protein standard curves using a four-parameter logistic model and solving for IC50 after iterating to the best least-squares fit. p38 inhibitors will show a dose dependent inhibition of LPS stimulated TNFα, and IL6 in differentiated U937 cells and a dose dependent inhibition of LPS stimulated TNFα, IL6 and IL1b in human PBMCs. As drugs that down-regulate TNFα, IL6 and IL1b are efficacious in a number of autoimmune, autoinflammatory inflammatory, cardiovascular and oncological diseases, it would be expected that p38 drugs that inhibit these cytokines and other enzymes and mediators of disease will be effective drugs. Species compounds of Formula (I), described hereinabove, evaluated in this assay, are expected to provide a therapeutic benefit in the treatment of p38 kinase mediated diseases, including lymphoma and inflammation.
A general note: ELISA stands for enzyme-linked immunosorbent assay.

The target of the next experiment is p38α/MK2 (Homo sapiens, UniProt Q16539). Put plainly: p38α/MK2 cascade assay (IMAP, Hsp27 peptide phosphorylation). In kind it is biochemical. The following applies: for IC50: p38α/MK2 cascade, Hsp27 peptide 1 μM, MgATP 10 μM, 120 minutes, read-out: p38/MK2 IC50; for Selectivity Ratio: ratio of p38α/PRAK:p38α/MK2 IC50 values. How it is done: as §1

Structures are written as SMILES.

Chain of p38α/PRAK (Q16539 whole entry): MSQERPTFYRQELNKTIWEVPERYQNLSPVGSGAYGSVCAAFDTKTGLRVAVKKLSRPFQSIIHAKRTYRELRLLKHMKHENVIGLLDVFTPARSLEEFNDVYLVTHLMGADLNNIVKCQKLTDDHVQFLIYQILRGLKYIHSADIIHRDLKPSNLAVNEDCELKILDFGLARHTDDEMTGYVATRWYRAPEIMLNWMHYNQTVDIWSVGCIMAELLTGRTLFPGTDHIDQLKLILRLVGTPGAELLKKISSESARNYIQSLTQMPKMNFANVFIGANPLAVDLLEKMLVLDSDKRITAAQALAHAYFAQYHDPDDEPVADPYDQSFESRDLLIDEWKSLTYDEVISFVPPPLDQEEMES
Chain of p38α/MK2 (Q16539 whole entry): as above
Chain of p38α/MK2 (P49137 whole entry partner): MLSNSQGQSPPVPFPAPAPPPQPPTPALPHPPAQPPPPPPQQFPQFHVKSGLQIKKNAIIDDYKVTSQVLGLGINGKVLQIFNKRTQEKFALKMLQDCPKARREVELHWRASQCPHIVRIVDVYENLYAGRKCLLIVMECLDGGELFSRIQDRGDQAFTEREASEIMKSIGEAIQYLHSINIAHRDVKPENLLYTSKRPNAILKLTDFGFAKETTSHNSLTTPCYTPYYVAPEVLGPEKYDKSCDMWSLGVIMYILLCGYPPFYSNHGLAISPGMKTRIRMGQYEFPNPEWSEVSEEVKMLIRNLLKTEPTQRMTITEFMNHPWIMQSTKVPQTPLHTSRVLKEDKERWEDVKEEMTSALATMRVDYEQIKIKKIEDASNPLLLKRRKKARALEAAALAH

As for `Cc1ccc(-c2ccnc(C(C)(C)O)n2)cc1-n1c(C)nc(OCc2ncc(F)cc2F)c(Cl)c1=O` [Example 21, (−)-5-chloro-6-((3,5-difluoropyridin-2-yl)methoxy)-3-(5-(2-(2-hydroxypropan-2-yl)pyrimidin-4-yl)-2-methylphenyl)-2-methylpyrimidin-4(3H)-one], the results for the IC50 on p38α/PRAK, in the experiment with TNFα and on p38α/MK2 were 252 nM, 96 nM and 33 nM, respectively. Moreover, the “Selectivity Ratio” value on p38α/MK2 stood at 7.63.

`Cc1cccc(COc2nc(C)n(-c3cc(-c4ccnc(C(C)(C)O)n4)ccc3C)c(=O)c2Cl)n1` (racemic) [Example 14, 5-chloro-3-(5-(2-(2-hydroxypropan-2-yl)pyrimidin-4-yl)-2-methylphenyl)-2-methyl-6-((6-methylpyridin-2-yl)methoxy)pyrimidin-4(3H)-one]: the IC50 on p38α/PRAK is 3300 nM; with TNFα it was 250 nM; on p38α/MK2, 184 nM. Also, on p38α/MK2, the “Selectivity Ratio” value was 17.9.

With `Cc1ccc(-c2ccnc(C(C)(C)O)n2)cc1-n1c(C)nc(OCc2cccc(C(F)(F)F)n2)c(Cl)c1=O` [Example 17, 5-chloro-3-(5-(2-(2-hydroxypropan-2-yl)pyrimidin-4-yl)-2-methylphenyl)-2-methyl-6-((6-(trifluoromethyl)pyridin-2-yl)methoxy)pyrimidin-4(3H)-one], the IC50 on p38α/PRAK is greater than 30000 nM; in the experiment with TNFα, 3750 nM; on p38α/MK2 it was 1700 nM. For the same molecule, on p38α/MK2, the “Selectivity Ratio” value is reported as greater than 17.6.

Take `COc1cccc(COc2nc(C)n(-c3cc(-c4ccnc(C(C)(C)C)n4)ccc3C)c(=O)c2Cl)c1` [Example 6, 3-[5-(2-tert-butyl-pyrimidin-4-yl)-2-methyl-phenyl]-5-chloro-6-(3-methoxy-benzyloxy) -2-methyl-3H-pyrimidin-4-one]: the IC50 on p38α/PRAK was determined as 11600 nM; with TNFα, 270 nM; at p38α/MK2, 1900 nM. Further, the “Selectivity Ratio” value on p38α/MK2 is 6.1.

`Cc1ccc(-c2ccnc(C(C)(C)O)n2)cc1-n1c(C)nc(OCc2ccc(F)c(C)c2F)c(Cl)c1=O` [Example 22, 5-chloro-6-(2,4-difluoro-3-methyl-benzyloxy)-3-{5-[2-(1-hydroxy-1-methyl-ethyl)-pyrimidin-4-yl]-2-methyl-phenyl}-2-methyl-3H-pyrimidin-4-one]: the results for the IC50 at p38α/PRAK, in the experiment with TNFα and at p38α/MK2 were 5820 nM, 215 nM and 386 nM, respectively. The “Selectivity Ratio” value at p38α/MK2 came to 15.1.

As for `Cc1cccc(COc2nc(C)n(-c3cc(-c4ccnc(C(C)(C)O)n4)ccc3C)c(=O)c2Cl)c1` [Example 5, 5-chloro-3-(5-(2-(2-hydroxypropan-2-yl)pyrimidin-4-yl)-2-methylphenyl)-2-methyl-6-((3-methylbenzyl)oxy)pyrimidin-4(3H)-one], the IC50 on p38α/PRAK was determined as 582 nM; in the experiment with TNFα, 40 nM; at p38α/MK2, 39 nM. In addition, the “Selectivity Ratio” value at p38α/MK2 is 14.9.

As for `Cc1cccc(COc2nc(C)n(-c3cc(-c4ccnc(C(C)(C)O)n4)ccc3C)c(=O)c2Br)n1` [Example 13, 5-bromo-3-(5-(2-(2-hydroxypropan-2-yl)pyrimidin-4-yl)-2-methylphenyl)-2-methyl-6-((6-methylpyridin-2-yl)methoxy)pyrimidin-4(3H)-one], the IC50 at p38α/PRAK is 1280 nM; with TNFα, 140 nM; at p38α/MK2, 83 nM. In addition, the “Selectivity Ratio” value on p38α/MK2 is recorded as 15.4.

For the molecule `Cc1ccc(-c2ccnc(C(C)(C)O)n2)cc1-n1c(C)nc(OCc2cccc(F)n2)c(Cl)c1=O` [Example 18, 5-chloro-6-((6-fluoropyridin-2-yl)methoxy)-3-(5-(2-(2-hydroxypropan-2-yl)pyrimidin-4-yl)-2-methylphenyl)-2-methylpyrimidin-4(3H)-one], the results for the IC50 on p38α/PRAK, in the experiment with TNFα and on p38α/MK2 were 7690 nM, 624 nM and 579 nM, respectively. Moreover, on p38α/MK2, the “Selectivity Ratio” value was 13.3.

`Cc1nc(COc2nc(C)n(-c3cc(-c4ccnc(C(C)(C)O)n4)ccc3C)c(=O)c2Cl)cs1` [Example 12, 5-chloro-3-(5-(2-(2-hydroxypropan-2-yl)pyrimidin-4-yl)-2-methylphenyl)-2-methyl-6-((2-methylthiazol-4-yl)methoxy)pyrimidin-4(3H)-one]: the IC50 at p38α/PRAK amounted to 1360 nM; in the experiment on TNFα, 118 nM; on p38α/MK2, 76 nM. The “Selectivity Ratio” value on p38α/MK2 was determined as 17.9.

Source of the values: US9056110B2, “Substituted pyrimidinone-phenyl-pyrimidinyl compounds” (Confluence Life Sciences, Inc., priority 2011, dated 2015).
